From patent US9359650B2, “Biomass pre-treatment for co-production of high-concentration C5- and C6-carbohydrates and their derivatives” (Wisconsin Alumni Research Foundation, priority 2013, dated 2016) come the findings set out here.

In one data set the test system is E. coli MG1655. The data set is described as follows: E. coli salt and GVL toxicity testing (growth, OD600). The data set is classed as cell-based. Particulars: E. coli MG1655, optical density after 24 hr of growth, 37° C., MOPS minimal media with 0.5% glucose plus wt % GVL or NaCl; FIGS. 22A/22B. As to the method: The strain used in these experiments was wild type E. coli MG1655 and in all cases was grown at 37° C. The toxicity medium used was based on MOPS minimal media with 0.5% glucose and supplemented with the appropriate wt % of GVL or sodium chloride (Sigma). A single colony of E. coli was picked from LB agar and grown overnight in 5 ml of LB media (glass culture tubes, 20×150 mm, Fisher Scientific) agitated at 250 rpm in an incubator shaker (New Brunswick Scientific). The resulting solution was used to inoculate 2 ml of the toxicity medium to an OD600 of 0.01 in 13×100 mm tubes (Fisher Scientific). The tubes were incubated for 24 hours under the same conditions as described in the main methods and a final OD600 measured using a Biomate 3 spectrophotometer (ThermoFisher).

The test system of another data set is S. cerevisiae PE2. The data set is described as follows: S. cerevisiae salt and GVL toxicity testing (growth, OD600). The data set is classed as cell-based. Particulars: S. cerevisiae PE2, optical density after 40 hr of growth, 30° C., Yeast Nitrogen Base, 0.5% glucose plus wt % GVL or NaCl; FIGS. 22A/22B. As to the method: The strain used in these experiments was S. cerevisiae PE2 and in all cases was grown at 30° C. The toxicity medium used was formulated using 10x Yeast Nitrogen Base without Amino Acids, 0.5% glucose and the appropriate wt % of GVL or sodium chloride (Sigma). A single colony of S. cerevisiae was picked from YPD agar and grown overnight in 5 ml of YPD media (glass culture tubes, 20×150 mm, Fisher Scientific) agitated at 250 rpm in the incubator shaker. The resulting solution was used to inoculate 2 ml of the toxicity medium to an OD600 of 0.01 in 13×100 mm tubes (Fisher Scientific). The tubes were incubated for 40 hours under same conditions and sampled as described above.

`CC1CCC(=O)O1` (stereo not shown) [GVL, gamma-valerolactone]: the “effect of concentration on microbial growth (optical density)” value in the data set on E. coli MG1655 and in the data set on S. cerevisiae PE2 was “can inhibit microbial growth” each time.
For `[Cl-].[Na+]` [NaCl, sodium chloride], the “effect of concentration on microbial growth (optical density)” value in the data set on E. coli MG1655 and in the data set with S. cerevisiae PE2 was “can inhibit microbial growth” each time.
